From patent US20150141435A1, “2-PYRIDONE ANTIMICROBIAL COMPOSITIONS” (Emergent BioSolutions, priority 2010, published 2015)
Converted amounts (≈) assume the structure as drawn. Counter-ions that a name gives are not always drawn. Like-named read-outs stand apart in the source and are kept apart here.

Tested on: bacterial pathogens resistant against quinolones antibiotics
Experiment: MIC against quinolone-resistant bacterial pathogens (Table 5)
Format: cell-based
[1] = Enterococcus faecalis, read-out: MICs, Enterococcus faecalis vancomycin-resistant (VanB) clinical isolate, GP14
[2] = Enterococcus faecium, read-out: MICs, Enterococcus faecium vancomycin-resistant (VanA) clinical isolate, GP17
[3] = Providencia stuartii, GN24, read-out: MICs, Providencia stuartii multi-drug resistant clinical isolate, GN24
[4] = Pseudomonas aeruginosa, GN64, read-out: MICs, Pseudomonas aeruginosa levofloxacin-resistant clinical isolate, GN64
[5] = Staphylococcus aureus, MRSA, read-out: MICs, EMRSA16 Staphylococcus aureus (MRSA) SSCmec type 2, GP33
[6] = Staphylococcus aureus, read-out: MICs, Staphylococcus aureus levofloxacin-resistant clinical isolate, amino acid changes GrlA, GrlB & GyrA, GP82
[7] = Staphylococcus aureus, read-out: MICs, Staphylococcus aureus multi-drug-resistant clinical isolate, GP5
[8] = Streptococcus pneumoniae, read-out: MICs, Streptococcus pneumoniae multi-drug resistant clinical isolate, GP24
[9] = read-out: MICs, Acinetobacter haumannii levofloxacin-resistant clinical isolate, GN54
[10] = Escherichia coli, GN03, read-out: MICs, Escherichia coli multi-drug resistant clinical isolate, GN03

Compound | MIC [1] [µg/mL] | MIC [2] [µg/mL] | MIC [3] [µg/mL] | MIC [4] [µg/mL] | MIC [5] [µg/mL] | MIC [6] [µg/mL] | MIC [7] [µg/mL] | MIC [8] [µg/mL] | MIC [9] [µg/mL] | MIC [10] [µg/mL] | MIC (Acinetobacter haumannii levofloxacin-resistant clinical isolate, GN54, read-out: MICs) [µg/mL] | MIC (EMRSA16 Staphylococcus aureus (MRSA) SSCmec type 2, GP33, read-out: MICs) [µg/mL] | MIC (Enterococcus faecalis vancomycin-resistant (VanB) clinical isolate, GP14, read-out: MICs) [µg/mL] | MIC (Enterococcus faecium vancomycin-resistant (VanA) clinical isolate, GP17, read-out: MICs) [µg/mL] | MIC (Escherichia coli multi-drug resistant clinical isolate, GN03, read-out: MICs) [µg/mL] | MIC (Providencia stuartii multi-drug resistant clinical isolate, GN24, read-out: MICs) [µg/mL] | MIC (Pseudomonas aeruginosa levofloxacin-resistant clinical isolate, GN64, read-out: MICs) [µg/mL] | MIC (Staphylococcus aureus multi-drug-resistant clinical isolate, GP5, read-out: MICs) [µg/mL] | MIC (Streptococcus pneumoniae multi-drug resistant clinical isolate, GP24, read-out: MICs) [µg/mL]
Cc1c(-c2ccc(N)c(F)c2)ccn2c(=O)c(C(=O)O)cc(C3CC3)c12 [Example 2 K salt, 8-(4-amino-3-fluoro-phenyl)-1-cyclopropyl-9-methyl-4-oxo-4H-quinolizine-3-carboxylic acid] | 0.5 | 2 | 1 | 2 | 0.12 | 0.06 | 0.06 | 0.12 | 2 |  |  |  |  |  |  |  |  |  | 
Cc1c(-c2ccc(N)nc2)ccn2c(=O)c(C(=O)O)cc(C3CC3)c12 [Example 21 K salt, 8-(6-amino-pyridin-3-yl)-1-cyclopropyl-9-methyl-4-oxo-4H-quinolizine-3-carboxylic acid] | 1 | 4 | 2 | 4 | 0.25 | 0.12 | 0.25 | 0.12 | 4 | 16 |  |  |  |  |  |  |  |  | 
Cc1c(-c2ccc3[nH]ncc3c2)ccn2c(=O)c(C(=O)O)cc(C3CC3)c12 [Example 23 K salt, 1-cyclopropyl-8-(1H-indazol-5-yl)-9-methyl-4-oxo-4H-quinolizine-3-carboxylic acid] | 0.25 | 0.5 | 1 | 2 | 0.03 |  | 0.03 | 0.03 | 1 | 4 |  |  |  |  |  |  |  |  | 
Cc1c(-c2cc(F)c(N)cc2F)ccn2c(=O)c(C(=O)O)cc(C3CC3)c12 [Example 28 K salt, 8-(4-amino-2,5-difluoro-phenyl)-1-cyclopropyl-9-methyl-4-oxo-4H-quinolizine-3-carboxylic acid] | 0.25 | 1 | 1 | 4 | 0.06 | 0.03 | 0.06 | 0.06 | 2 | 16 |  |  |  |  |  |  |  |  | 
Cc1c(-c2ccc(O)cc2)ccn2c(=O)c(C(=O)O)cc(C3CC3)c12 [Example 46 K salt, 1-cyclopropyl-8-(4-hydroxy-phenyl)-9-methyl-4-oxo-4H-quinolizine-3-carboxylic acid] | 0.5 | 1 | 2 | 4 | 0.06 | 0.03 | 0.06 | 0.12 | 2 | 8 |  |  |  |  |  |  |  |  | 
C[C@H]1COc2c(N3CCN(C)CC3)c(F)cc3c(=O)c(C(=O)O)cn1c23 [Levofloxacin] |  |  |  |  |  | 8 (≈ 22.1 µM) |  |  |  |  | ≥ 16 | ≥ 16 | ≥ 16 | ≥ 16 | ≥ 16 | ≥ 16 | ≥ 16 | ≥ 16 | 2 (≈ 5.53 µM)
